Experimental data published in patent US20050112573A1, “Method of detecting toxic substance” (priority 2001, published 2005).

Test system: yeast genes (level of expressed mRNA)
Experiment: DNA chip analysis of expressed mRNA of yeast genes after 2 h culture with a toxic chemical substance
Assay type: cell-based, Saccharomyces cerevisiae S288C
Experimental: Yeast (Saccharomyces cerevtisiae S288C (α SUC2mal mel gap2 CUP1)) were cultured at 25° C. on YPD medium (yeast extract 1%, polypepton 2%, glucose 2%). One of toxic chemical substances was added to the cell at logarithmic growth phase, and the cell was further cultured for two hours. Cell was cultured without any chemical substance in the same condition, and was used as control. Concentrations of the chemical substances were defined to inhibit the growth of the yeast but not lead to death.
After the completion of cultivation, the culture was centrifuged to collect the cells. To the cells, sodium acetate buffer (50 mM sodium acetate, 10 mM EDTA, 1% SDS) was added, and the mixture was shaken at 65° C. for five minutes, followed by returning to room temperature, and obtaining the supernatant, which procedure was repeated two times. To the supernatant, ½ amount of a solution of phenol/chloroform was added, and the mixture was centrifuged to give a supernatant, which was added with an equal amount of chloroform, and the mixture was centrifuged to give a supernatant. To the supernatant, an equal amount of isopropanol containing 0.3 M sodium acetate was added, and the mixture was allowed to stand at room temperature for 30 minutes, after which the mixture was centrifuged to give a sediment of the whole RNAs. Seventy % ethanol was added to the sediment, and the mixture was again centrifuged to give a sediment, which was then dried and dissolved in water. mRNA was isolated from the whole RNAs as followings. In view of the fact that a poly A chain is attached to the 3′ terminus of mRNA, a polynucleotide having a poly T structure which was immobilized on the surface of latex beads was used to trap the mRNA, and then the mRNA was washed and eluted with spine column (Oligotex-dT30<Super>mRNA Purification Kit, Takara). Reverse transcription of the mRNA was conducted with a reverse transcriptase (Super Script II Reverse Transcriptase; catalogue No. 18064-014, GibcoBRL) using fluorescence-labeled nucleotides to give cDNAs that were introduced with Cy3-dUTP or Cy5-dUTP during the reverse transcription.
The labeled cDNAs were dissolved in TE buffer (10 mM Tris-HCl/1 mM EDTA, pH8.0), and the solution was dropped on the DNA chip containing the whole genes of yeast (DNA Chip Research Inc. Japan) so that the cDNAs were hybridized on the DNA chip at 65° C. for over 12 hours. The fluoresces intensity of the DNA chip was read with a scanner, and the ratio relative to the fluorescence intensity resulting from the absence of chemical substance was estimated as the following, which is shown in Tables 1 to 9: [formula]
In the Tables, “Intensity” indicated in the rightmost column is a value of the level of expressed mRNA of each gene in control cells as divided by the average level of the expressions of the whole genes.

Structure (SMILES): CCCCCCCCCCCCOS(=O)(=O)[O-].[Na+] [(18), sodium lauryl sulfate]
- level of expressed mRNA in the presence of chemical substance/in its absence (gene YAL012W): 0.8
- The level of expressed mRNA in the presence of chemical substance/absence: YAL014C (gene YAL014C): 1.1
- The level of expressed mRNA in the presence of chemical substance/absence: YAL017W (gene YAL017W): 1.2
- The level of expressed mRNA in the presence of chemical substance/absence: YAL018C (gene YAL018C): 0.9
- level of expressed mRNA in the presence of chemical substance/in its absence (gene YAL038W): 1.0
- level of expressed mRNA in the presence of chemical substance/in its absence (gene YAL044C): 1.8
- The level of expressed mRNA in the presence of chemical substance/absence: YAL049C (gene YAL049C): 1.8
- level of expressed mRNA in the presence of chemical substance/in its absence (gene YAL054C): 1.4
- The level of expressed mRNA in the presence of chemical substance/absence: YAR047C (gene YAR047C): 1.0
- The level of expressed mRNA in the presence of chemical substance/absence: YAR064W (gene YAR064W): 0.9
- level of expressed mRNA in the presence of chemical substance/in its absence (gene YAR071W): 1.6
- level of expressed mRNA in the presence of chemical substance/in its absence (gene YBL001C): 1.8
- The level of expressed mRNA in the presence of chemical substance/absence: YBL044W (gene YBL044W): 0.8
- The level of expressed mRNA in the presence of chemical substance/absence: YBL100C (gene YBL100C): 0.8
- The level of expressed mRNA in the presence of chemical substance/absence: YBR012C (gene YBR012C): 1.2
- The level of expressed mRNA in the presence of chemical substance/absence: YBR013C (gene YBR013C): 1.1
- level of expressed mRNA in the presence of chemical substance/in its absence (gene YBR014C): 1.6
- level of expressed mRNA in the presence of chemical substance/in its absence (gene YBR023C): 0.9
- level of expressed mRNA in the presence of chemical substance/in its absence (gene YBR029C): 0.8
- level of expressed mRNA in the presence of chemical substance/in its absence (gene YBR035C): 1.9
- level of expressed mRNA in the presence of chemical substance/in its absence (gene YBR050C): 1.8
- The level of expressed mRNA in the presence of chemical substance/absence: YBR051W (gene YBR051W): 0.8
- The level of expressed mRNA in the presence of chemical substance/absence: YBR063C (gene YBR063C): 1.2
- The level of expressed mRNA in the presence of chemical substance/absence: YBR066C (gene YBR066C): 1.2
- level of expressed mRNA in the presence of chemical substance/in its absence (gene YBR068C): 1.3
- level of expressed mRNA in the presence of chemical substance/in its absence (gene YBR111C): 2.4
- The level of expressed mRNA in the presence of chemical substance/absence: YBR124W (gene YBR124W): 0.9
- The level of expressed mRNA in the presence of chemical substance/absence: YBR129C (gene YBR129C): 1.5
- level of expressed mRNA in the presence of chemical substance/in its absence (gene YBR145W): 2.0
- The level of expressed mRNA in the presence of chemical substance/absence: YBR162C (gene YBR162C): 1.3
- level of expressed mRNA in the presence of chemical substance/in its absence (gene YBR183W): 2.4
- level of expressed mRNA in the presence of chemical substance/in its absence (gene YBR222C): 0.9
- The level of expressed mRNA in the presence of chemical substance/absence: YBR255W (gene YBR255W): 1.0
- The level of expressed mRNA in the presence of chemical substance/absence: YBR281C (gene YBR281C): 0.8
- The level of expressed mRNA in the presence of chemical substance/absence: YBR287W (gene YBR287W): 1.9
- level of expressed mRNA in the presence of chemical substance/in its absence (gene YBR299W): 1.1
- level of expressed mRNA in the presence of chemical substance/in its absence (gene YCL009C): 0.8
- The level of expressed mRNA in the presence of chemical substance/absence: YCL044C (gene YCL044C): 0.6
- The level of expressed mRNA in the presence of chemical substance/absence: YCL056C (gene YCL056C): 1.5
- level of expressed mRNA in the presence of chemical substance/in its absence (gene YCL064C): 0.3
- The level of expressed mRNA in the presence of chemical substance/absence: YCR007C (gene YCR007C): 2.1
- level of expressed mRNA in the presence of chemical substance/in its absence (gene YCR037C): 0.9
- level of expressed mRNA in the presence of chemical substance/in its absence (gene YCR048W): 0.8
- level of expressed mRNA in the presence of chemical substance/in its absence (gene YCR098C): 1.6
- level of expressed mRNA in the presence of chemical substance/in its absence (gene YDL022W): 1.4
- The level of expressed mRNA in the presence of chemical substance/absence: YDL046W (gene YDL046W): 1.6
- The level of expressed mRNA in the presence of chemical substance/absence: YDL089W (gene YDL089W): 1.1
- The level of expressed mRNA in the presence of chemical substance/absence: YDL173W (gene YDL173W): 1.8
- The level of expressed mRNA in the presence of chemical substance/absence: YDL193W (gene YDL193W): 1.4
- The level of expressed mRNA in the presence of chemical substance/absence: YDL233W (gene YDL233W): 1.4
- level of expressed mRNA in the presence of chemical substance/in its absence (gene YDR009W): 1.0
- level of expressed mRNA in the presence of chemical substance/in its absence (gene YDR019C): 1.6
- The level of expressed mRNA in the presence of chemical substance/absence: YDR071C (gene YDR071C): 1.6
- The level of expressed mRNA in the presence of chemical substance/absence: YDR078C (gene YDR078C): 1.2
- The level of expressed mRNA in the presence of chemical substance/absence: YDR090C (gene YDR090C): 1.1
- The level of expressed mRNA in the presence of chemical substance/absence: YDR109C (gene YDR109C): 0.9
- The level of expressed mRNA in the presence of chemical substance/absence: YDR128W (gene YDR128W): 0.9
